The text below walks through data of patent US11299485B2, “Thiophene derivative and use thereof” (FUJIMOTO CO., LTD., priority 2018, dated 2022).

Holding throughout (type): cell-based
The subject of one data set is Daudi cells. Briefly: Human Burkitt lymphoma cell line Daudi proliferation suppression test. Particulars: 72 h, compound 10 μM, 3 days, WST-8, read-out: cell survival rate (% of control) Daudi. The procedure, abridged:
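Daudi cells plated at 1.3×10^5 cells/mL and cultured overnight at 37° C., 5% CO2, then given test compound at final 10 μM (DMSO vehicle control). After 3 days' culture, proliferation was read by WST-8.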
For orientation: Tetrazolium assays rely on reduction of a dye to a coloured formazan, in cell work by metabolically active cells.

A further data set relates to TNF-α production. The data set is described as follows: Human TNF-α production suppression test (LPS-stimulated peripheral blood mononuclear cells, ELISA). Particulars: PBMC, compound 10 μg/mL, 24 hr, control well = 100, read-out: TNF-α production suppressive rate (%). A digest of the protocol: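 PBMCs from healthy adult blood (Lymphoprep) were seeded at 5×10^5 cells/mL in RPMI1640 with 10% FCS, with test compound and LPS, for 24 hr at 37° C, 5% CO2. Supernatant TNF-α was measured by ELISA; suppression rate calculated against DMSO control wells set as 100.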
On the technique in general: An ELISA detects its analyte on a solid surface through an enzyme-linked reagent.

Data set [1] has as its system human peripheral blood mononuclear cells (PBMC). The data set is described as follows: Cytotoxicity test using human peripheral blood mononuclear cells (PBMC). To be noted: compound 10 μg/mL, LPS, 24 hr, WST-1 or WST-8. A digest of the protocol: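 Healthy-donor PBMC isolated by Lymphoprep density centrifugation were seeded at 5×10^5 cells/mL (stock density) with 10 μg/mL LPS stock and test compound at 10 μg/mL final. Cultured 24 hr at 37° C, 5% CO2; survival measured by WST-1 or WST-8 versus DMSO control.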

The next data set has as its system Kasumi-7 cells. Briefly: Human acute lymphoblastic leukemia cell line Kasumi-7 proliferation suppression test. To be noted: 72 h, compound 10 μM, 3 days, WST-8, read-out: cell survival rate (% of control) Kasumi-7. A digest of the protocol:
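Cells seeded at 1.3×10^5 cells/mL in RPMI1640 with 20% FCS, cultured overnight at 37°C, 5% CO2, then treated with compound at 10 μM final; DMSO vehicle control. Proliferation read by WST-8 after 3 days' culture.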

As for `CCOc1cc(-c2cn(C3CCC(=O)NC3=O)nn2)cs1` (centres unmarked) [compound 24, 3-[4-(5-ethoxythiophen-3-yl)-1H-1,2,3-triazol-1-yl]piperidine-2,6-dione], the viability at 10 µM in the data set with Daudi cells is 69%; in the data set with Kasumi-7 cells, 72%. Besides, in the data set with TNF-α production, the inhibition at 10 µg/mL was found to be 75%. Besides, the “cell survival rate (% of control) PBMC” value in data set [1] is reported as 91 % of control.
On the same counts, the results for `Cc1ccc(-c2cn(C3CCC(=O)NC3=O)nn2)s1` (centres unmarked) [compound 5, 3-[4-(5-methylthiophen-2-yl)-1H-1,2,3-triazol-1-yl]piperidine-2,6-dione] are 82%, 72%, 71% and 97 % of control.
For `COCc1ccc(COc2cscc2-c2cn(C3CCC(=O)NC3=O)nn2)cc1` (centres unmarked) [compound 37, 3-(4-{4-[4-(methoxymethyl)benzyloxy]thiophen-3-yl}-1H-1,2,3-triazol-1-yl)piperidine-2,6-dione], in that order: 20%, 38%, 81% and 99 % of control.
For `Cc1cscc1-c1cn(C2CCC(=O)NC2=O)nn1` (centres unmarked) [compound 7, 3-[4-(4-methylthiophen-3-yl)-1H-1,2,3-triazol-1-yl]piperidine-2,6-dione], in that order: 75%, 69%, 73% and 101 % of control.
For the compound `CCOc1cscc1-c1cn(C2CCC(=O)NC2=O)nn1` (centres unmarked) [compound 17, 3-[4-(4-ethoxythiophen-3-yl)-1H-1,2,3-triazol-1-yl]piperidine-2,6-dione], the viability at 10 µM in the data set on Daudi cells was found to be 50%; in the data set on Kasumi-7 cells, 48%. For the same compound, the inhibition at 10 µg/mL with TNF-α production was 92%. Besides, in data set [1], the “cell survival rate (% of control) PBMC” value is recorded as 49 % of control.
On the same counts, the results for `CC(C)Oc1cscc1-c1cn(C2CCC(=O)NC2=O)nn1` (centres unmarked) [compound 26, 3-[4-(4-isopropoxythiophen-3-yl)-1H-1,2,3-triazol-1-yl]piperidine-2,6-dione] are 51%, 50%, 83% and 42 % of control.
Turning to `O=C1CCC(n2cc(-c3cscc3OCc3cc4ccccc4s3)nn2)C(=O)N1` (centres unmarked) [compound 47, 3-{4-[4-(benzo[b]thiophen-2-ylmethoxy)thiophen-3-yl]-1H-1,2,3-triazol-1-yl}piperidine-2,6-dione], the viability at 10 µM in the data set with Daudi cells was found to be 87%; with Kasumi-7 cells, 56%. Moreover, in the data set on TNF-α production, the inhibition at 10 µg/mL is 63%. Moreover, the “cell survival rate (% of control) PBMC” value in data set [1] is 106 % of control.
For `CCCOc1cscc1-c1cn(C2CCC(=O)NC2=O)nn1` (centres unmarked) [compound 21, 3-[4-(4-propoxythiophen-3-yl)-1H-1,2,3-triazol-1-yl]piperidine-2,6-dione], in that order: 86%, 79%, 30% and 116 % of control.
For `COc1cscc1-c1nnn(C2CCC(=O)NC2=O)c1I` (centres unmarked) [compound 49, 3-[5-iodo-4-(4-methoxythiophen-3-yl)-1H-1,2,3-triazol-1-yl]piperidine-2,6-dione], in that order: 42%, 56%, 79% and 102 % of control.
For `O=C1CCC(n2cc(-c3cscc3OCC3CCCCC3)nn2)C(=O)N1` (centres unmarked) [compound 30, 3-{4-[4-(cyclohexylmethoxy)thiophen-3-yl]-1H-1,2,3-triazol-1-yl}piperidine-2,6-dione], in that order: 76%, 62%, 79% and 70 % of control.
Turning to `COc1c(-c2cn(C3CCC(=O)NC3=O)nn2)csc1Br` (centres unmarked) [compound 23, 3-[4-(5-bromo-4-methoxythiophen-3-yl)-1H-1,2,3-triazol-1-yl]piperidine-2,6-dione], the viability at 10 µM in the data set with Daudi cells and in the data set on Kasumi-7 cells was 76% throughout. For the same compound, in the data set with TNF-α production, the inhibition at 10 µg/mL is 62%. In addition, the “cell survival rate (% of control) PBMC” value in data set [1] was 104 % of control.
